Common to all, as to assay type: cell-based
Test [1] relates to NCI-H460 non-small cell lung cancer cell line. Put plainly: NCI in vitro screen, non-small cell lung cancer NCI-H460. The conditions noted are these: Homo sapiens, read-out: Cytotoxicity log GI50 (converted).
Test [2] concerns NCI's 60 human tumor cell line. Briefly: NCI 60 human tumor cell line in vitro screen (average / whole panel). To be noted: calculated from all cell lines tested, molar concentrations, read-out: average log GI50 (converted).
The subject of test [3] is SK-MEL-5 melanoma cell line. Briefly: NCI in vitro screen, melanoma SK-MEL-5. The conditions noted are these: Homo sapiens, read-out: Cytotoxicity log GI50 (converted). The source says:
(§1) Compounds 41-51 and 53-68 were submitted to NCI and assayed in the NCI's in vitro disease-oriented antitumor screen, which involves determination of a test compound's effects on the growth of approximately 60 human tumor cell lines. See, M. R. Boyd, et al. In Cancer: Principles and Practice of Oncology Updates; De Vita, V. T., Hellman, S., Rosenberg, S. A., Eds; J. B. Lippincoft: Philadelphia, pp 1-12 (1989); and A. Monks, et al. J. Natl. Cancer Inst. 83:757 (1991). These lines include leukemia, non-small cell lung, colon, central nervous system (CNS), melanoma, ovarian, renal, prostate, and breast cancers.
(§2) Compounds 29'-51' were submitted to NCI and assayed in the NCI's in vitro disease-oriented antitumor screen, using the techniques described in Example 5. This assay involves determinations of a test agent's effect on growth parameters against a panel of approximately 60 human tumor cell lines, derived largely from solid tumors, including non-small cell lung, colon, central nervous system, renal, ovarian, prostate, and breast cancers, plus a few leukemia cell lines. The cytotoxic effects of each compound are obtained as GI50 or […] values, which represent the molar drug concentrations required to cause half growth inhibition and total growth inhibition, respectively. The results are expressed for each cell line as average log GI50 values in Table 4, as log GI50 values in Table 5, and as log TGI values and average log TGI values in Table 6.

The subject of test [4] is OVCAR-3 ovarian cancer cell line. Briefly: NCI in vitro screen, ovarian cancer OVCAR-3. To be noted: Homo sapiens, read-out: Cytotoxicity log GI50 (converted).
In test [5] the test system is HL-60(TB) leukemia cell line. Put plainly: cells. To be noted: Homo sapiens; HL-60(TB); read-out: Cytotoxicity log GI50 (converted).
For test [6], the system named is PC-3 prostate cancer cell line. Put plainly: NCI in vitro screen, prostate cancer PC-3. To be noted: Homo sapiens, read-out: Cytotoxicity log GI50 (converted).
Description: as §1, §2

The test system of test [7] is 786-0 renal cancer cell line. Put plainly: NCI in vitro screen, renal cancer 786-0. To be noted: Homo sapiens, read-out: Cytotoxicity log GI50 (converted).
Description: as §1, §2

Test [8] relates to MDA-N breast cancer cell line. Briefly: NCI in vitro screen, breast cancer MDA-N. To be noted: Homo sapiens, read-out: Cytotoxicity log GI50 (converted).
Description: as §1, §2

Test [9] deals with MDA-MB-435 breast cancer cell line. Put plainly: NCI in vitro screen, breast cancer MDA-MB-435. The conditions noted are these: Homo sapiens, read-out: Cytotoxicity log GI50 (converted).
Test [10] concerns SF-295 CNS cancer cell line. Briefly: NCI in vitro screen, CNS cancer SF-295. To be noted: Homo sapiens, read-out: Cytotoxicity log GI50 (converted).
Test [11] concerns HCT-116 colon cancer cell line. Briefly: NCI in vitro screen, colon cancer HCT-116. To be noted: Homo sapiens; HCT-1.16 (head); HCT-116 (footnote); read-out: Cytotoxicity log GI50 (converted).
Test [12] has as its system U-251 CNS cancer cell line. Put plainly: NCI in vitro screen, CNS cancer U-251. To be noted: Homo sapiens, read-out: Cytotoxicity log GI50 (converted).

Where only a bound is given, the exact number is not on record here.

By GI50 is commonly meant the concentration that inhibits growth by half. For `COc1ccccc1-c1cc(=O)c2c(C)ccnc2[nH]1` [Compound 40], the GI50 in [1] is 24 µM; in test [2], 2.82 µM; in test [3], 22.4 µM; in test [4] it was 12.9 µM; in [5] it was 20.9 µM; in [6], 20.9 µM. The GI50 in [7] is 60.3 µM; in test [8], 8.32 µM; in test [9] it was 6.46 µM; in test [10], 23.4 µM; in [11], 7.59 µM; in test [12], 35.5 µM.

In the case of `O=C1CC(c2ccc3ccccc3c2)=Nc2ncccc21` [Compound 47, 2-(β-Naphthyl)-1,8-naphthyridin-4-one], the GI50 in test [1] was 3.8 µM; in test [2] it was 8.13 µM; in [3], 3.47 µM; in test [4] it was 8.32 µM; in test [5] it was 1.82 µM; in test [6], 10.5 µM. Further, the GI50 in [7] was 5.62 µM; in test [8], 1.66 µM; in [9], 1.78 µM; in test [10], 9.12 µM; in test [11], 3.8 µM; in test [12], 4.37 µM.

With `COc1ccccc1-c1cc(=O)c2cccnc2[nH]1` [Compound 39], the concentration for 50% growth inhibition (GI50) in [1] is 38.9 µM; in test [2], 40.7 µM; in [3] it was 31.6 µM; in [4], 47.9 µM; in test [5], 38.9 µM; in test [6], 29.5 µM. Also, the concentration for 50% growth inhibition (GI50) in [7] was 36.3 µM; in [8], 20 µM; in [9], 39.8 µM; in test [10] it was 23.4 µM; in [11], 27.5 µM; in test [12], 67.6 µM.

Take `COc1ccccc1-c1cc(=O)c2ccc(C)nc2[nH]1` [Compound 42]: the 50% growth inhibitory concentration (GI50) was 97.7 µM in [1]; 79.4 µM in test [2]; 51.3 µM in test [3]; > 100 µM in test [4]; 74.1 µM in test [5]; > 100 µM in test [6]. Further, the GI50 is > 100 µM in [7]; 20 µM in test [8]; 21.9 µM in test [9]; > 100 µM in test [10]; 38 µM in test [11]; > 100 µM in test [12].

With `Cc1cccc(C2=Nc3nc(C)ccc3C(=O)C2)c1` [Compound 40, 2-(3'-Methylphenyl)-7-methyl-1,8-naphthyridin-4-one], the GI50 in [1] was 0.0178 µM; in test [2] it was 0.0977 µM; in test [3] it was 0.126 µM; in [4], 0.49 µM; in test [5], 0.0269 µM; in [6], 0.138 µM. Further, the GI50 is 0.427 µM in test [7]; 0.0316 µM in test [8]; 0.0324 µM in test [9]; 0.0603 µM in [10]; 0.12 µM in test [11]; 0.2 µM in test [12].

With `COc1cccc(-c2cc(=O)c3c(C)cc(C)nc3[nH]2)c1` [Compound 48], the GI50 in test [1] is 0.447 µM; in test [2], 0.646 µM; in test [3], 0.288 µM; in test [4], 0.251 µM; in test [5], 0.174 µM; in [6], 0.309 µM. In addition, the concentration for 50% growth inhibition (GI50) in test [7] is 0.437 µM; in [8], < 0.01 µM; in test [9] it was < 0.01 µM; in [10] it was 0.417 µM; in test [11], 0.407 µM; in test [12], 0.17 µM.

Regarding `Cc1cccc(C2=Nc3ncc(C)cc3C(=O)C2)c1` [Compound 39, 2-(3'-Methylphenyl)-6-methyl-1,8-naphthyridin-4-one], the GI50 in test [2] was 0.646 µM; in test [3], 0.288 µM; in test [4], 0.251 µM; in test [5], 0.174 µM; in test [6], 0.309 µM; in test [7] it was 0.437 µM. In addition, the GI50 was < 0.01 µM in [8]; < 0.01 µM in test [9]; 0.417 µM in test [10]; 0.407 µM in test [11]; 0.17 µM in test [12].

For the compound `Cc1ccc2c(=O)cc(-c3cccc(Cl)c3)[nH]c2n1` [35'], the concentration for 50% growth inhibition (GI50) in [1] is 0.0417 µM; in [2] it was 0.17 µM; in test [3], 0.0316 µM; in [4] it was < 0.01 µM; in test [5], 0.0288 µM; in test [6], > 100 µM. Moreover, the GI50 is 0.0417 µM in test [7]; > 100 µM in test [8]; < 0.01 µM in test [9]; 0.0229 µM in test [10]; 0.0257 µM in [11]; 0.0646 µM in test [12].

For `COc1ccccc1-c1cc(=O)c2cc(C)cnc2[nH]1` [Compound 41], the 50% growth inhibitory concentration (GI50) in test [1] is 32.4 µM; in test [2], 31.6 µM; in test [3] it was 20.4 µM; in test [4], 19.5 µM; in test [5] it was 9.55 µM; in test [6], 26.9 µM. Besides, the 50% growth inhibitory concentration (GI50) is 41.7 µM in test [7]; 4.47 µM in test [8]; 3.02 µM in [9]; 30.9 µM in test [10]; 42.7 µM in test [11]; 27.5 µM in test [12].

As to `Cc1cnc2c(c1)C(=O)CC(c1cccc3ccccc13)=N2` [Compound 44, 2-(α-Naphthyl)-6-methyl-1,8-naphthyridin-4-one], the GI50 is < 0.01 µM in [1]; 0.0191 µM in test [2]; < 0.01 µM in [3]; < 0.01 µM in test [4]; < 0.01 µM in [5]; < 0.01 µM in [6]. For the same compound, the GI50 in test [7], in test [8], in test [9], in [10], in test [11] and in test [12] was < 0.01 µM throughout.

On to `O=C1CC(c2cccc3ccccc23)=Nc2ncccc21` [Compound 42, 2-(α-Naphthyl)-1,8-naphthyridin-4-one], for which the 50% growth inhibitory concentration (GI50) was 0.0389 µM in test [1]; < 0.01 µM in test [3]; < 0.01 µM in test [4]; < 0.01 µM in test [5]; 0.0178 µM in test [6]; 0.0151 µM in test [7]. The 50% growth inhibitory concentration (GI50) in test [8] was < 0.01 µM; in test [9], < 0.01 µM; in test [10] it was < 0.01 µM; in test [11], < 0.01 µM; in test [12] it was 0.0102 µM.

Take `Cc1ccnc2c1C(=O)CC(c1ccc3ccccc3c1)=N2` [Compound 48, 2-(β-Naphthyl)-5-methyl-1,8-naphthyridin-4-one]: the GI50 was 1.12 µM in test [1]; 1.2 µM in [2]; 0.437 µM in [3]; 1.29 µM in test [4]; 0.204 µM in test [5]; 1.38 µM in test [6]. Moreover, the GI50 in test [7] is 2.4 µM; in [8], 0.204 µM; in test [9] it was 0.204 µM; in test [10], 1.48 µM; in test [11] it was 0.427 µM; in test [12], 0.646 µM.

As for `Cc1ccc2c(n1)N=C(c1cccc3ccccc13)CC2=O` [Compound 45, 2-(α-Naphthyl)-7-methyl-1,8-naphthyridin-4-one], the concentration for 50% growth inhibition (GI50) in [1] is 0.0174 µM; in test [2], 0.0661 µM; in test [3] it was 0.0138 µM; in test [4] it was < 0.01 µM; in test [5], < 0.01 µM; in test [6] it was 0.0302 µM. For the same compound, the GI50 is 6.03 µM in test [7]; < 0.01 µM in test [8]; < 0.01 µM in [9]; 0.024 µM in test [10]; < 0.01 µM in [11]; 0.0155 µM in test [12].

For the compound `Cc1cccc(C2=Nc3nc(C)cc(C)c3C(=O)C2)c1` [Compound 41, 2-(3'-Methylphenyl)-5,7-dimethyl-1,8-naphthyridin-4-one], the GI50 was 44.7 µM in test [1]; 34.7 µM in [3]; 30.2 µM in [4]; 12.9 µM in [5]; 31.6 µM in test [6]; 56.2 µM in test [7]. The GI50 in test [8] was 20.9 µM; in test [9], 20 µM; in test [10], 64.6 µM; in test [11] it was 17.8 µM; in test [12], 53.7 µM.
